Data set [1] is described as follows: Stability studies on storage. Type of data set: physicochemical. The settings on record: for form after storage: 1 month at 80° C. and 75% relative humidity; for form transition after storage: storage at various relative humidities.
The nature of data set [2]: Form conversion on exposure to solvent vapor, air, moisture or room conditions. Type of data set: physicochemical.
Data set [3] can be described thus: Intrinsic dissolution rate (rotating disk). The class given is physicochemical. How it is done:
Intrinsic Dissolution Rate (IDR): Dissolution rate measurements were performed at 37° C. using the rotating disk method (VanKell Instrument). A single rotation speed of 200 rpm was used. For IDR in 0.1N HCl, an 800 mL volume, and for IDR in water, a 200 mL volume were used. The solution was continuously pumped through a UV measuring cell and recycled to the dissolution vessel.
The measurements were carried out on a VanKel instrument using a Cary 100 photometer.

Data set [4] can be described thus: Equilibration of hydrochloride forms A, B and C with solvents, XRPD. Type of data set: physicochemical. From the text:
Then the solutions were filtered and the solid part investigated by XRPD.

Data set [5] is described as follows: Solubility by gravimetric techniques at different temperatures, residue by XRPD.
The mark [6] stands for this setting: in the presence of methanol vapor.
The mark [7] stands for this setting: dissolution medium pH 2 (citrate buffer).
[8] abbreviates: 0.0001N HCl, 25° C., after 24 hours.
The mark [9] stands for this setting: 0.001N HCl, 25° C., after 24 hours.
[10] abbreviates: 0.1N HCl, 50° C., after 24 hours.
Setting [11] is: Methanol/Water (99.5/0.5) v/v, 20° C., 1 hour.
Setting [12] is: Methanol/Water (99.5/0.5) v/v, 45° C., 24 hours.

The values that follow come from patent US8829015B2 (Novartis AG, priority 2005, dated 2014).

Each structure is given as a SMILES string. Where “and” joins values, the source holds several entries; their conditions need not be identical. Equal entries are not always repeated. Entries after “also recorded” stand apart in the source; their conditions may differ. Structures can show the parent of a compound that is named as a salt.

With `Cc1cn(-c2cc(NC(=O)c3ccc(C)c(Nc4nccc(-c5cccnc5)n4)c3)cc(C(F)(F)F)c2)cn1` [Amorphous form of the hydrochloride salt], the form after storage entry in data set [1] is reported as “showed a mixture with form A”. For the same compound, in data set [1], the “form transition after storage” value is reported as “spontaneously crystallizes to form A; also recorded: spontaneously converts to the form A hydrochloride salt”. For the same compound, the form conversion result in data set [2] (setting [6]) was “converts to form B”. The “Intrinsic Dissolution Rate value” is reported as 0.2508 mg/min/cm^2 in data set [3] (dissolution medium HCl 0.1 N) and 0.0250 mg/min/cm^2 in data set [3] (setting [7]).

Regarding `Cc1cn(-c2cc(NC(=O)c3ccc(C)c(Nc4nccc(-c5cccnc5)n4)c3)cc(C(F)(F)F)c2)cn1` [Form A′ of the hydrochloride salt], the form conversion entry in data set [2] (under room conditions) is listed as “converts within a few minutes under room conditions to form A”.

As to `Cc1cn(-c2cc(NC(=O)c3ccc(C)c(Nc4nccc(-c5cccnc5)n4)c3)cc(C(F)(F)F)c2)cn1` [Form B′ of the hydrochloride salt], the results for the form conversion result in data set [2] (exposed to moisture) and in data set [2] (under room conditions) were “converts back to the monohydrate” and “converts within a few minutes under room conditions to form B”, respectively.

A word on the Solubility: it is the concentration that dissolves in the medium under given conditions. Low readings indicate little dissolved substance, high ones much dissolved substance. Take `Cc1cn(-c2cc(NC(=O)c3ccc(C)c(Nc4nccc(-c5cccnc5)n4)c3)cc(C(F)(F)F)c2)cn1` [Form C of the hydrochloride salt]: the “form transition on equilibration” value in data set [4] (ethanol/water (99:1), 50° C., 1 day) is “transitioned to a mixture of all three forms”; in data set [4] (methanol, 50° C., 1 day), “transitioned to form B”; in data set [4] (methanol, one day, 25° C.) it was “transitioned to form B”; in data set [4] (tetrahydrofuran, 50° C., 1 day), “to a mixture of forms B and C”; in data set [4] (water, 50° C., 1 day), “transitioned to form A”; in data set [4] (water, one day, 25° C.), “transitioned to form A”. The form after storage entry in data set [1] was “showed a mixture with form A”. In addition, in data set [1], the “form transition after storage” value was “No form transitions were observed”. Also, the form conversion entry in data set [2] (setting [6]) is recorded as “converts to form B”. Moreover, the “Intrinsic Dissolution Rate value” was 0.0004 mg/min/cm^2 in data set [3] (dissolution medium HCl 0.0001 N); 0.0057 mg/min/cm^2 in data set [3] (dissolution medium HCl 0.001 N); 0.0247 mg/min/cm^2 in data set [3] (dissolution medium HCl 0.01 N); 0.2323 mg/min/cm^2 and 0.3213 mg/min/cm^2 in data set [3] (dissolution medium HCl 0.1 N); 0.000 mg/min/cm^2 in data set [3] (dissolution medium Water); 0.0099 mg/min/cm^2 in data set [3] (setting [7]). Moreover, the Solubility is listed as 1.67 mg/mL in data set [5] (setting [8]); 1.29 mg/mL in data set [5] (setting [9]); 6.72 mg/mL in data set [5] (0.001N HCl, 50° C., after 24 hours); 1.37 mg/mL in data set [5] (0.01N HCl, 25° C., after 24 hours); 1.69 mg/mL in data set [5] (0.01N HCl, 50° C., after 24 hours); 2.35 mg/mL in data set [5] (0.1N HCl, 25° C., after 24 hours). The Solubility in data set [5] (setting [10]) was 8.30 mg/mL; in data set [5] (Methanol, 25° C., after 24 hours), 18.20 mg/mL; in data set [5] (Methanol, 50° C., after 24 hours) it was 55.26 mg/mL; in data set [5] (Methanol/Water (95/5) v/v, 20° C., 10 minutes) it was 18.88 mg/mL; in data set [5] (Methanol/Water (95/5) v/v, 20° C., 1 hour), 13.03 mg/mL; in data set [5] (Methanol/Water (95/5) v/v, 20° C., 24 hours) it was 11.76 mg/mL. Further, the Solubility in data set [5] (Methanol/Water (95/5) v/v, 45° C., 10 minutes) stood at 37.68 mg/mL; in data set [5] (Methanol/Water (95/5) v/v, 45° C., 1 hour), 31.15 mg/mL; in data set [5] (Methanol/Water (95/5) v/v, 45° C., 24 hours), 32.26 mg/mL; in data set [5] (Methanol/Water (95/5) v/v, −10° C., 10 minutes) it was 9.73 mg/mL; in data set [5] (Methanol/Water (95/5) v/v, −10° C., 1 hour), 7.74 mg/mL; in data set [5] (Methanol/Water (95/5) v/v, −10° C., 24 hours), 11.00 mg/mL. The Solubility worked out at 24.34 mg/mL in data set [5] (Methanol/Water (99.5/0.5) v/v, 20° C., 10 minutes); 17.70 mg/mL in data set [5] (setting [11]); 12.09 mg/mL in data set [5] (Methanol/Water (99.5/0.5) v/v, 20° C., 24 hours); 39.86 mg/mL in data set [5] (Methanol/Water (99.5/0.5) v/v, 45° C., 10 minutes); 46.15 mg/mL in data set [5] (Methanol/Water (99.5/0.5) v/v, 45° C., 1 hour); 45.59 mg/mL in data set [5] (setting [12]). Moreover, the Solubility was determined as 11.91 mg/mL in data set [5] (Methanol/Water (99.5/0.5) v/v, −10° C., 10 minutes); 7.99 mg/mL in data set [5] (Methanol/Water (99.5/0.5) v/v, −10° C., 1 hour); 6.12 mg/mL in data set [5] (Methanol/Water (99.5/0.5) v/v, −10° C., 24 hours); 1.47 mg/mL in data set [5] (Water, 25° C., after 24 hours); 1.31 mg/mL in data set [5] (Water, 50° C., after 24 hours). The “XRPD (form of the solid)” value in data set [5] (setting [8]) was “C + A”; in data set [5] (setting [9]) it was “C + A”; in data set [5] (setting [10]) it was “A+”; in data set [5] (setting [11]), “C + B”; in data set [5] (setting [12]), “C + B”; in data set [5] (Water, 25° C., after 24 hours), “C + A”.

Take `Cc1cn(-c2cc(NC(=O)c3ccc(C)c(Nc4nccc(-c5cccnc5)n4)c3)cc(C(F)(F)F)c2)cn1` [Form C′ of the hydrochloride salt]: the form conversion result in data set [2] (under room conditions) is “converts within a few minutes under room conditions to a mixture of forms B and C”.

Regarding `Cc1cn(-c2cc(NC(=O)c3ccc(C)c(Nc4nccc(-c5cccnc5)n4)c3)cc(C(F)(F)F)c2)cn1` [Form SB of the hydrochloride salt], the form conversion result in data set [2] (exposed to air) is “converts quickly to the monohydrate form B when exposed to air”.

As to `Cc1cn(-c2cc(NC(=O)c3ccc(C)c(Nc4nccc(-c5cccnc5)n4)c3)cc(C(F)(F)F)c2)cn1` [Form SC of the hydrochloride salt], the form conversion entry in data set [2] (exposed to air) is reported as “converts quickly to the monohydrate form C when exposed to air”.
